# Reference: PMC11945486, “TAS1R2/TAS1R3 Single-Nucleotide Polymorphisms Affect Sweet Taste Receptor Activation by Sweeteners: The SWEET Project” (Nutrients, 2025)
# No end group written: not given here.
# T1: human TAS1R2-I191V/TAS1R3-WT (Homo sapiens, UniProt Q7RTX0+Q8TE23, I191V)
# T1 construct: expressed in transfected cells; host or cells: HEK293T-Gα16gust44
# T1 sequence (Q8TE23 20-839 I191V): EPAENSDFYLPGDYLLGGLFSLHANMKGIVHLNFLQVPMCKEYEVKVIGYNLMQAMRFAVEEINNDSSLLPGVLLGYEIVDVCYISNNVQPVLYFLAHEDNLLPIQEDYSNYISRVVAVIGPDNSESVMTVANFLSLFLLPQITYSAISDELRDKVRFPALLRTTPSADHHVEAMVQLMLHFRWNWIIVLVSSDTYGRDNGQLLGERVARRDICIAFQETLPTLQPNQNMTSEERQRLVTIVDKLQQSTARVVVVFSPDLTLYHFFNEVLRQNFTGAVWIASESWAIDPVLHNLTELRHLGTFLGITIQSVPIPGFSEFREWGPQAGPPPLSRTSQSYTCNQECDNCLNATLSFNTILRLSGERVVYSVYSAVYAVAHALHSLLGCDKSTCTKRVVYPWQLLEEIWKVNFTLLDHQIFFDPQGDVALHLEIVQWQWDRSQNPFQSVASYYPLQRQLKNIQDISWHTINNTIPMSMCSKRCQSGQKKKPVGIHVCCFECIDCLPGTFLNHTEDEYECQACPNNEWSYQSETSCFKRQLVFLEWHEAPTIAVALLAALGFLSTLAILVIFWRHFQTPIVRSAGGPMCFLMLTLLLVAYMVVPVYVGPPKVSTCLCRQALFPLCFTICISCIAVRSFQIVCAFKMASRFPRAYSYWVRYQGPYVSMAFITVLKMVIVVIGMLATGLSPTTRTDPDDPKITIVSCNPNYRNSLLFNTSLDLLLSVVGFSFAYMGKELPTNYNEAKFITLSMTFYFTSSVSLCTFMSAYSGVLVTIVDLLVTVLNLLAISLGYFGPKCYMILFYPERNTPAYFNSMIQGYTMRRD
# T1 sequence (Q7RTX0 21-852): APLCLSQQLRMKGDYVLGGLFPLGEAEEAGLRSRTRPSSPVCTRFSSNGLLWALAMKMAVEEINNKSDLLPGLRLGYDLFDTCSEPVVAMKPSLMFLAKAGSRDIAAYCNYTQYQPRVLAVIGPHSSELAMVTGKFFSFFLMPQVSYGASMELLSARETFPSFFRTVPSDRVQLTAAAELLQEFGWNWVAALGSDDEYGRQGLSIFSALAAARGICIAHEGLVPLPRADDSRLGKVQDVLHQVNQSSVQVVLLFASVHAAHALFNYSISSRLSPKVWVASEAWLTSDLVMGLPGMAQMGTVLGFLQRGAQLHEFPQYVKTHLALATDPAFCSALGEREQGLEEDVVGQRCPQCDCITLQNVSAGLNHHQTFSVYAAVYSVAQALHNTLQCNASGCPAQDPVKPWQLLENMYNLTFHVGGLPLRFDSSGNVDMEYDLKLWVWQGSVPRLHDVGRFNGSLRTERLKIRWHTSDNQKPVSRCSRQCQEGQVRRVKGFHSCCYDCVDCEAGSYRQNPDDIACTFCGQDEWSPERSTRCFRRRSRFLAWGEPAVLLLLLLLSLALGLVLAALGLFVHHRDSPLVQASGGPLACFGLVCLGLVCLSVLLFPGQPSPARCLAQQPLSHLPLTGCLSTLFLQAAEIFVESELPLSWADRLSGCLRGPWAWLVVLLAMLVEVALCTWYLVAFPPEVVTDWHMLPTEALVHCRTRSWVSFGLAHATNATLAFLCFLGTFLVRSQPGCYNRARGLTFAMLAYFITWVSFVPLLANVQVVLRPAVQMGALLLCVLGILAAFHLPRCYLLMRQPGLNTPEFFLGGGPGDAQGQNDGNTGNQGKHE
# Target: T1, human TAS1R2-I191V/TAS1R3-WT
# Assay: Calcium mobilisation assay, TAS1R2 variant I191V with TAS1R3-WT
# Assay type: cell-based
# Conditions: for Max ΔF/F0: maximal signal amplitude
# Description: The coding sequences for TAS1R2 and TAS1R3 were commercially synthesised, and the human codon was optimised for expression in human cells. The coding sequences of human TAS1R2 and TAS1R3 were subcloned and inserted into the mammalian expression vectors pcDNA6/myc-HisA and pcDNA4/myc-HisA (Invitrogen; Thermo Fisher Scientific; Illkirch, France) between the EcoRI and NotI restriction sites, generating the plasmids pcDNA6-TAS1R2 and pcDNA4-TAS1R3, respectively. To increase protein expression in mammalian cells, an upstream start codon was used, which was a sequence called MAX, corresponding to the QBI SP163 element also described in pcDNA4-HisMax (Invitrogen; Thermo Fisher Scientific; Illkirch, France). To measure the expression level of the receptor by immunohistochemistry, we used the FLAG sequence ([…]) in the C-terminal position, which encodes the FLAG tag epitope. SNP variants of TAS1R2 and TAS1R3 were constructed based on […], respectively, using site-directed mutagenesis (Genewiz; Leipzig, Germany).
# The HEK293T cells were kindly provided by Jay P. Slack (Givaudan Flavors Corporation; Cincinnati, OH, USA). HEK293T cells stably transfected with Gα16gust44 [43, 67] were seeded in poly-D-lysine-coated clear-bottom black 96-well plates (0.35 × 10^5 cells/well) in high-glucose DMEM supplemented with 2 mM GlutaMAX, 10% dialysed foetal bovine serum with penicillin/streptomycin and G418 (400 μg/mL) at 37 °C and 6.3% CO2 in a humidified atmosphere as previously reported. […] As a negative control, HEK293T cells were mock-transfected with the empty expression vector. After a further 24 h of incubation, the HEK293T cells were washed with C1 buffer (130 mM NaCl, 5 mM KCl, 10 mM HEPES pH 7.4 and 2 mM CaCl2). The 96-well plates containing the cells were then stimulated with sweet-tasting compounds. […] Different concentration ranges were tested depending on the sweet compound injected. The Ca^2+ changes were expressed as fractional changes in fluorescent light intensity: ΔF/F = (F − F0)/F0, where F was the fluorescent light intensity at each point, and F0 was the value of emitted fluorescent light prior to stimulus application. To calculate dose–response relationships, the changes in fluorescence upon stimulus application were averaged, mock-subtracted and baseline-corrected. The dose–response data obtained were adjusted using a 4-parameter logistic equation. The half-maximal effective concentrations (EC50 values) and maximal signal amplitudes were calculated using SigmaPlot software (version 15.0) (Systat Software; San Jose, CA, USA).
# For in vitro calcium mobilisation assay performed on hTAS1R2-SNPs, hTAS1R3-SNPs and mTAS1R3-I60T, 6 to 7 concentrations were tested for each sweet compound, plus buffer alone. All concentration–receptor combinations were measured in duplicate, and each experiment was repeated at least 4 times (8 wells/concentration). Results were expressed for each concentration as ΔF/F mean ± SEM and represented as dose–response curves.
Molecule,EC50 [µM],R1 = Variant EC50/WT EC50,Max ΔF/F0
"CC1=CC(=O)NS(=O)(=O)O1 [Acesulfame K, acesulfame K]",492 ± 30,0.7,0.27 ± 0.01
"O=S(=O)(O)NC1CCCCC1 [Cyclamate, cyclamate]",2020 ± 31,,
"C[C@H](CC[C@@H](O[C@@H]1O[C@H](CO[C@@H]2O[C@H](CO)[C@@H](O)[C@H](O)[C@H]2O)[C@@H](O)[C@H](O)[C@H]1O[C@@H]1O[C@H](CO)[C@@H](O)[C@H](O)[C@H]1O)C(C)(C)O)[C@H]1CC[C@@]2(C)[C@@H]3CC=C4[C@@H](CC[C@H](O[C@@H]5O[C@H](CO[C@@H]6O[C@H](CO)[C@@H](O)[C@H](O)[C@H]6O)[C@@H](O)[C@H](O)[C@H]5O)C4(C)C)[C@]3(C)[C@H](O)C[C@]12C [Mogroside V, mogroside V]",19.2 ± 1.7,1.1,1.33 ± 0.04
"COc1ccc(CCC(=O)c2c(O)cc(O[C@@H]3O[C@H](CO)[C@@H](O)[C@H](O)[C@H]3O[C@@H]3O[C@@H](C)[C@H](O)[C@@H](O)[C@H]3O)cc2O)cc1O [NHDC, neohesperidin dihydrochalcone]",109 ± 4.6,1.4,0.73 ± 0.01
COC(=O)[C@H](Cc1ccccc1)NC(=O)[C@H](CC(=O)O)NCCC(C)(C)C [Neotame],0.84 ± 0.08,1.0,0.64 ± 0.02
"C=C(C)[C@@H]1CC=C(/C=N/O)CC1 [Perillartine, perillartine]",27.9 ± 0.5,1.6,1.27 ± 0.01
"C=C1C[C@@]23CC[C@H]4[C@@](C)(CCC[C@@]4(C)C(=O)O[C@@H]4O[C@H](CO)[C@@H](O)[C@H](O[C@@H]5O[C@H](CO)[C@@H](O)[C@H](O)[C@H]5O)[C@H]4O[C@@H]4O[C@H](CO)[C@@H](O)[C@H](O)[C@H]4O)[C@@H]2CC[C@]1(O[C@@H]1O[C@H](CO)[C@@H](O)[C@H](O[C@@H]2O[C@H](CO)[C@@H](O)[C@H](O)[C@H]2O)[C@H]1O[C@@H]1O[C@H](CO)[C@@H](O)[C@H](O)[C@H]1O)C3 [Rebaudioside M, rebaudioside M]",21 ± 0.4,1.2,1.10 ± 0.01
OC[C@H]1O[C@H](O[C@]2(CCl)O[C@H](CCl)[C@@H](O)[C@@H]2O)[C@H](O)[C@@H](O)[C@H]1Cl [Sucralose],87 ± 7,1.0,0.52 ± 0.02
"brazzein (QDKCKKVYENYPVSKCQLANQCNYDCKLDKHARSGECFYDEKRNLQCICDYCEY; ends and bridges not checked; cysteine pairing not given here; UniProt P56552 1-54, looked up) [sweet-tasting protein obtained by recombinant production using the yeast Pichia pastoris]",,1.7,1.12 ± 0.02
thaumatin,,1.0,0.34 ± 0.02
"thaumatin (protein, Eight disulfides, sweet-tasting plant protein, E957) ATFEIVNRCSYTVWAAASKGDAALDAGGRQLNSGESWTINVEPGTKGGKIWARTDCYFDDSGSGICKTGDCGGLLRCKRFGRPPTTLAEFSLNQYGKDYIDISNIKGFNVPMDFSPTTRGCRGVRCAADIVGQCPAKLKAPGGGCNDACTVFQTSEYCCTTGKCGPTEYSRFFKRLCPDAFSYVLDKPTTVTCPGSSNYRVTFCPTA",7.7 ± 0.9,,
